Data: US20190002427A1, “STEREOISOMER OF FLOCOUMAFEN, COMPOSITION AND RODENTICIDE BAIT COMPRISING SAME, AND METHOD FOR CONTROLLING TARGET RODENT PESTS” (priority 2015, published 2019)

Columns and labels:
target rodent pests = experiment: Rodenticidal efficacy; assay type: in vivo; conditions: relative to the other configurational stereoisomers; in words, no data shown
[1] = assay type: in vivo, Sprague-Dawley rats; conditions: relative to the other configurational stereoisomers; in words
Description: About 0.525 g (±0.025 g) of rat liver is weighed out accurately and placed in a 50 mL polypropylene tube. 10 mL of acetone are added and the suspension is homogenized using an Ultra-Turrax® homogenizer/disperser for a time of about 30 seconds. The homogenizer/disperser shaft is rinsed with hot water and then twice with 20 mL of acetone in a polypropylene tube. The homogenate is centrifuged for 5 minutes at a centrifugation speed of 3000 rpm (revolutions per minute). The supernatant is collected and transferred into a test tube. The sample is subjected to evaporation under a stream of nitrogen (N2) at a temperature of 40° C. so as to form a dry extract.
1 mL of acetonitrile is added to the tube containing the dry extract so as to dissolve it. […]
The configurational stereoisomers of flocoumafen are separated by high-pressure liquid chromatography using a LUX® Cellulose-4 chiral column (00F-4490-B0, Phenomenex, Le Pecq, France) as stationary phase and a mixture formed from acetonitrile (A) and water comprising 0.1% by volume of formic acid (B), with an A/B volume ratio of 92/8, as mobile phase with a flow rate of the liquid mobile phase in the chromatography column of 0.25 mL/minute. […] In particular, the MRM (“Multiple Reaction Monitoring”) transitions m/z 541.1→382.1 and m/z 541.1→161, corresponding to the flocoumafen signal, are detected. […]

O=c1oc2ccccc2c(O)c1C1CC(c2ccc(OCc3ccc(C(F)(F)F)cc3)cc2)Cc2ccccc21 (single isomer, unassigned) [Enantiomer E4, flocoumafen]
Rodenticidal efficacy (target rodent pests): increased rodenticidal efficacy relative to the other configurational stereoisomers
Persistence in the liver [1]: more persistent in the liver of the target rodent pests
